Test results taken from US11725011B2, “Bicyclic urea kinase inhibitors and uses thereof” (The Broad Institute, Inc., priority 2016, dated 2023).

Tests used:
Test in all cases: KINOMEscan
Type in all cases: binding
Details in all cases: 1 uM
GRK4 = GRK4 (Homo sapiens (Human), UniProt P32298)
CSNK2A2 = CSNK2A2 (Homo sapiens (Human), UniProt P19784)
NEK3 = NEK3 (Homo sapiens (Human), UniProt P51956)
MAP4K4 = MAP4K4 (Homo sapiens (Human), UniProt O95819)
ALK (L1196M) = ALK (L1196M) (Homo sapiens (Human), UniProt Q9UM73, L1196M)
EPHB1 = EPHB1 (Homo sapiens (Human), UniProt P54762)
NIM1 = NIM1 (Homo sapiens (Human), UniProt Q8IY84)
TTK = TTK (Homo sapiens (Human), UniProt P33981)
ERBB4 = ERBB4 (Homo sapiens (Human), UniProt Q15303)
IRAK3 = IRAK3 (Homo sapiens (Human), UniProt Q9Y616)
BMX = BMX (Homo sapiens (Human), UniProt P51813)
CSNK2A1 = CSNK2A1 (Homo sapiens (Human), UniProt P68400)
PIK3CA = PIK3CA (Homo sapiens (Human), UniProt P42336)
RIOK1 = RIOK1 (Homo sapiens (Human), UniProt Q9BRS2)
PDPK1 = PDPK1 (Homo sapiens (Human), UniProt O15530)
EGFR (S752-I759del) = EGFR (S752-I759del) (Homo sapiens (Human), UniProt P00533, DEL752-759)
PIK3CB = PIK3CB (Homo sapiens (Human), UniProt P42338)
FGFR3 = FGFR3 (Homo sapiens (Human), UniProt P22607)
[1] = target: ABL1 (Y253F)-phosphorylated (Homo sapiens (Human), UniProt P00519, Y253F)
STK16 = STK16 (Homo sapiens (Human), UniProt O75716)
WNK1 = WNK1 (Homo sapiens (Human), UniProt Q9H4A3)
AMPK-alpha1 = AMPK-alpha1 (Homo sapiens (Human), UniProt Q13131)
TGFBR2 = TGFBR2 (Homo sapiens (Human), UniProt P37173)
HASPIN = HASPIN (Homo sapiens (Human), UniProt Q8TF76)
SgK110 = SgK110 (Homo sapiens (Human), UniProt P0C264)
NEK10 = NEK10 (Homo sapiens (Human), UniProt Q6ZWH5)
PLK1 = PLK1 (Homo sapiens (Human), UniProt P53350)
PIM2 = PIM2 (Homo sapiens (Human), UniProt Q9P1W9)
CLK2 = CLK2 (Homo sapiens (Human), UniProt P49760)
NDR1 = NDR1 (Homo sapiens (Human), UniProt Q15208)
MEK3 = MEK3 (Homo sapiens (Human), UniProt P46734)
DDR1 = DDR1 (Homo sapiens (Human), UniProt Q08345)
DCAMKL3 = DCAMKL3 (Homo sapiens (Human), UniProt Q9C098)
PKN2 = PKN2 (Homo sapiens (Human), UniProt Q16513)
SRPK2 = SRPK2 (Homo sapiens (Human), UniProt P78362)
MYLK = MYLK (Homo sapiens (Human), UniProt Q15746)
SBK1 = SBK1 (Homo sapiens (Human), UniProt Q52WX2)
PIK3CA (E545A) = PIK3CA (E545A) (Homo sapiens (Human), UniProt P42336, E545A)
ERK2 = ERK2 (Homo sapiens (Human), UniProt P28482)
ERK3 = ERK3 (Homo sapiens (Human), UniProt Q16659)
[2] = target: ABL1 (F317L)-nonphosphorylated (Homo sapiens (Human), UniProt P00519, F317L)

Chain of NDR1 (Q15208 whole entry): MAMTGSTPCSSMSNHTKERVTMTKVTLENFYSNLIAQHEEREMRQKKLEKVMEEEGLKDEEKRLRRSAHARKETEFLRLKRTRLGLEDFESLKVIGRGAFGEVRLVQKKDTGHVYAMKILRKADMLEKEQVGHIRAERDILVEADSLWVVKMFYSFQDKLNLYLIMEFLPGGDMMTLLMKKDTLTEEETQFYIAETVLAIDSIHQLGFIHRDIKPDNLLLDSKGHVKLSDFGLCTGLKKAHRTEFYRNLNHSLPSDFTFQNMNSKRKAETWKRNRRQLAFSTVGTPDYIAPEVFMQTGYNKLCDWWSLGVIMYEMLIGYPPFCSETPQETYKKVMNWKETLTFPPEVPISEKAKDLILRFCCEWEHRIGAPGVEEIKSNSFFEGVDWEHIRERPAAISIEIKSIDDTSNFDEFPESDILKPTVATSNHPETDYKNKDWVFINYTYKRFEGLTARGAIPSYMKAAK
Chain of SRPK2 (P78362 whole entry): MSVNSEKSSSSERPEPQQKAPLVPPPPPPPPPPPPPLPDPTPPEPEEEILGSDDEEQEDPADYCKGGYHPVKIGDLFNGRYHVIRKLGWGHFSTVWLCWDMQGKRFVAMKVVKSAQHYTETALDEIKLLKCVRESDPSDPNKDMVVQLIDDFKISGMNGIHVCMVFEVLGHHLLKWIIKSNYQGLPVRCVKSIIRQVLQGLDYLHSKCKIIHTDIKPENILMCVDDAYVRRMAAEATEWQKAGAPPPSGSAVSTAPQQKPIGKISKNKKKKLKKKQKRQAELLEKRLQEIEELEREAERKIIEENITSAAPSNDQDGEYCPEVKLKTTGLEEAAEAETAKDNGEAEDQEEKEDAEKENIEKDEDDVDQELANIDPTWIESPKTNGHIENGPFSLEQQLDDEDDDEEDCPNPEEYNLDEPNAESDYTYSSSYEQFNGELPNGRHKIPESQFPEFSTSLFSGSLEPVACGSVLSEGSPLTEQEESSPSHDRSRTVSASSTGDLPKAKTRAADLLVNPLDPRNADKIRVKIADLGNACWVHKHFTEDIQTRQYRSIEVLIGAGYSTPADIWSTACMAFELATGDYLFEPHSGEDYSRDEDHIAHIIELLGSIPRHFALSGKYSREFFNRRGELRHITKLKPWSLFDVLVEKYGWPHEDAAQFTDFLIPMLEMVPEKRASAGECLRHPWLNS
Chain of IRAK3 (Q9Y616 whole entry): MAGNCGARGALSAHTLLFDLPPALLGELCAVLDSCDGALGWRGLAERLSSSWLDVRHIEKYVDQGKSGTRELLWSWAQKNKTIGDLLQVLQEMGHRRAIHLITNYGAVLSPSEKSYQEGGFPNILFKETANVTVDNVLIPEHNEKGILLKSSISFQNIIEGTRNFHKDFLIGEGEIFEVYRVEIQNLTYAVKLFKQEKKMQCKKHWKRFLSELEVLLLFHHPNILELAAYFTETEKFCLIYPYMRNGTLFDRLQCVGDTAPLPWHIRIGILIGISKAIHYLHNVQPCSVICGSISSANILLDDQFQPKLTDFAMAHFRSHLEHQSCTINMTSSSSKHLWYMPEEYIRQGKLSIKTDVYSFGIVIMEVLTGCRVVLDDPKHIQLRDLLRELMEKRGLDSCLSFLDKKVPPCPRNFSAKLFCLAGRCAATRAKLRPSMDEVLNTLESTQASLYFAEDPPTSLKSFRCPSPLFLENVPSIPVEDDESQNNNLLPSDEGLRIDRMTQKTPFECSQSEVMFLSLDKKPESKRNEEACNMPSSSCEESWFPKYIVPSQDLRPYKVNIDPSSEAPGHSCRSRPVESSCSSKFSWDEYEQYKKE
Chain of EPHB1 (P54762 18-984): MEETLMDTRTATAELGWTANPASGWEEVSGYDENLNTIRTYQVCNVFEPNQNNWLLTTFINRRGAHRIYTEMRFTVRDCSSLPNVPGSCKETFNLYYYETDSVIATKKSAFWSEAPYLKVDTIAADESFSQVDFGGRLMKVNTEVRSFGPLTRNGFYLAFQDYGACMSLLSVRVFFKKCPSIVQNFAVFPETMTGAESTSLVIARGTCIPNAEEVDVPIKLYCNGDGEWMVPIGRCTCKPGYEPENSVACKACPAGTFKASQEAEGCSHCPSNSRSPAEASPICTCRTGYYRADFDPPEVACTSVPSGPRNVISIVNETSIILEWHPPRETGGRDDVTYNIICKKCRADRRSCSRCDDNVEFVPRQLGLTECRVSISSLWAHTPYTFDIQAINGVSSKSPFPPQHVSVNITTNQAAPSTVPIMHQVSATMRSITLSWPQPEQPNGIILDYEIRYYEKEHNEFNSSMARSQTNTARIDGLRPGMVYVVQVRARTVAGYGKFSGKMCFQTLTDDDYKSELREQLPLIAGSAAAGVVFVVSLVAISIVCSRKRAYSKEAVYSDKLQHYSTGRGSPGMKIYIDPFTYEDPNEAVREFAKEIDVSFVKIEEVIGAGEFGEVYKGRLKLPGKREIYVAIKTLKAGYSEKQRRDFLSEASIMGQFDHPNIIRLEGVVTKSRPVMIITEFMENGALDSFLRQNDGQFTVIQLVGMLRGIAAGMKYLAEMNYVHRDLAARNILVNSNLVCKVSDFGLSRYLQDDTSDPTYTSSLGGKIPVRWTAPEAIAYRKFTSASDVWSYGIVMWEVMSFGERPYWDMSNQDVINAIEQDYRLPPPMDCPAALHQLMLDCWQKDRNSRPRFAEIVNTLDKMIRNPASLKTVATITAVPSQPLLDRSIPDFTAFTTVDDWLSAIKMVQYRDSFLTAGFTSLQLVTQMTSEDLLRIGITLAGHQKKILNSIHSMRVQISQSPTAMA
Chain of MYLK (Q15746 whole entry): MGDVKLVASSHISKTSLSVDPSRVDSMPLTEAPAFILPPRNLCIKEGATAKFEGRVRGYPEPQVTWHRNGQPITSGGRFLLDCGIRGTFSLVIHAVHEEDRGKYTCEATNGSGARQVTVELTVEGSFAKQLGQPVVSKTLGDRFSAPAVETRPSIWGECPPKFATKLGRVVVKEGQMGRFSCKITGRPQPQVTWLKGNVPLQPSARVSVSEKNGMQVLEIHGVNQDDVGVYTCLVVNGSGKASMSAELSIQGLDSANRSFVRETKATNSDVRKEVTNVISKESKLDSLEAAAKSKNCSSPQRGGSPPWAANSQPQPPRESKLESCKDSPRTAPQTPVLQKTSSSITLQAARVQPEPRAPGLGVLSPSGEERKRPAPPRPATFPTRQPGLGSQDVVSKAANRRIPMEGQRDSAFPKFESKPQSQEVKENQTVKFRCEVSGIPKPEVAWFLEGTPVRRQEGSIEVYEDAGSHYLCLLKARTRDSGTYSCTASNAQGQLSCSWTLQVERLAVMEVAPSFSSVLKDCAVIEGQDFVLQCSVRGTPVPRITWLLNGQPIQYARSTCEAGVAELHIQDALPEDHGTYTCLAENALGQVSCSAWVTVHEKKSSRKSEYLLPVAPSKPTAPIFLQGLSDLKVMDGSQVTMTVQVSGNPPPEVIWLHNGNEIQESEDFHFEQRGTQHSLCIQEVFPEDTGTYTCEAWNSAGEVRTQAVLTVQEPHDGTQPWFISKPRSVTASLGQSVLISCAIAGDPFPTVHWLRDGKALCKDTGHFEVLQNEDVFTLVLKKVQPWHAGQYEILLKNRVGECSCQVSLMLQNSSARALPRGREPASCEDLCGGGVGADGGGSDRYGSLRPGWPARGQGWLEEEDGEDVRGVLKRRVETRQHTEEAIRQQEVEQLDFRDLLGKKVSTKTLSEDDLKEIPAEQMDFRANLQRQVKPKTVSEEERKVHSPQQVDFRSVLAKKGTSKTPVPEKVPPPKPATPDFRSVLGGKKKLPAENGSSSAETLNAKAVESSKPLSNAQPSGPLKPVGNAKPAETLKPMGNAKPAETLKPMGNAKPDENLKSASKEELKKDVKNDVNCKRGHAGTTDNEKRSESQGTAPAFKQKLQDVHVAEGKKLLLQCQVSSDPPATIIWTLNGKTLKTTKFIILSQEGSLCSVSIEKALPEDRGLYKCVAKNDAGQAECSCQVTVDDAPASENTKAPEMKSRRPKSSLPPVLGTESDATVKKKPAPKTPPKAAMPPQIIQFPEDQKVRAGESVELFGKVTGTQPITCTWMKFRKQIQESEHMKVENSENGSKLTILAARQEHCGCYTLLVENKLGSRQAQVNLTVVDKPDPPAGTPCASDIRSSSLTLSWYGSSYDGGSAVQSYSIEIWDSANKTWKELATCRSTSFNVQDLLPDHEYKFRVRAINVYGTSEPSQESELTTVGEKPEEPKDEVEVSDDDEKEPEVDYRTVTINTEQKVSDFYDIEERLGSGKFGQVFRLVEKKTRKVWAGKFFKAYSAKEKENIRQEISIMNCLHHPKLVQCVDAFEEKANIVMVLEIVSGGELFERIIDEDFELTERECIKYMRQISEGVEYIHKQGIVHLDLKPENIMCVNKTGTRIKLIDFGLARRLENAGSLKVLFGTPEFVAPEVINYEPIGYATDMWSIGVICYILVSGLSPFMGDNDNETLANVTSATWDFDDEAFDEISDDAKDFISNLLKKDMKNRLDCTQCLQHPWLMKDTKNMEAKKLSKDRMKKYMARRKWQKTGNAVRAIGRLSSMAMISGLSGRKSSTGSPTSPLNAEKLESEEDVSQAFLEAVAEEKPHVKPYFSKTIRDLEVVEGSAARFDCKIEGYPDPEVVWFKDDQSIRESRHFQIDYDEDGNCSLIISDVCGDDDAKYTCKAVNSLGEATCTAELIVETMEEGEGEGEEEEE
Chain of CSNK2A1 (P68400 whole entry): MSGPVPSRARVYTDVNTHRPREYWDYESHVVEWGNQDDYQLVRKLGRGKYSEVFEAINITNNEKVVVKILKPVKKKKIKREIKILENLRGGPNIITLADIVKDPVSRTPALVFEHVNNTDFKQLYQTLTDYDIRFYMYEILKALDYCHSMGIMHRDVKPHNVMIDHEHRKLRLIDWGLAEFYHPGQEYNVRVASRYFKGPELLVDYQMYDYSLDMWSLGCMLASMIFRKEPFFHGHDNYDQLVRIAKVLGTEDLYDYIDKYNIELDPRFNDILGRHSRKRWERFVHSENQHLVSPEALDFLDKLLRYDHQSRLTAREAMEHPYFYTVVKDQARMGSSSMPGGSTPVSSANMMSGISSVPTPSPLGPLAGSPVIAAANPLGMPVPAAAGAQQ

## COc1ccc(N2C(=O)N(c3c(C)cccc3C)Cc3cnc(Nc4ccc(N5CCN(C)CC5)cc4)nc32)c(OC)c1 [HG-11-136-01]
GRK4
  KINOMEscan GRK4: 26
CSNK2A2
  KINOMEscan CSNK2A2: 0.05
NEK3
  KINOMEscan NEK3: 39
MAP4K4
  KINOMEscan MAP4K4: 17
ALK (L1196M)
  KINOMEscan ALK (L1196M): 8.2
EPHB1
  KINOMEscan EPHB1: 0.3
NIM1
  KINOMEscan NIM1: 42
TTK
  KINOMEscan TTK: 47
ERBB4
  KINOMEscan ERBB4: 0.2
IRAK3
  KINOMEscan IRAK3: 38
BMX
  KINOMEscan BMX: 3
CSNK2A1
  KINOMEscan CSNK2A1: 1.9
PIK3CA
  KINOMEscan PIK3CA: 100
RIOK1
  KINOMEscan RIOK1: 9.2
PDPK1
  KINOMEscan PDPK1: 100
EGFR (S752-I759del)
  KINOMEscan EGFR (S752-I759del): 4.2
PIK3CB
  KINOMEscan PIK3CB: 92
FGFR3
  KINOMEscan FGFR3: 0.95
[1]
  KINOMEscan ABL1 (Y253F)-phosphorylated: 0.15
STK16
  KINOMEscan STK16: 5.6
WNK1
  KINOMEscan WNK1: 89
AMPK-alpha1
  KINOMEscan AMPK-alpha1: 33
TGFBR2
  KINOMEscan TGFBR2: 38
HASPIN
  KINOMEscan HASPIN: 92
SgK110
  KINOMEscan SgK110: 8.6
NEK10
  KINOMEscan NEK10: 9.6
PLK1
  KINOMEscan PLK1: 60
PIM2
  KINOMEscan PIM2: 100
CLK2
  KINOMEscan CLK2: 35
NDR1
  KINOMEscan NDR1: 46
MEK3
  KINOMEscan MEK3: 6.4
DDR1
  KINOMEscan DDR1: 0.3
DCAMKL3
  KINOMEscan DCAMKL3: 77
PKN2
  KINOMEscan PKN2: 94
SRPK2
  KINOMEscan SRPK2: 93
MYLK
  KINOMEscan MYLK: 86
SBK1
  KINOMEscan SBK1: 6.6
PIK3CA (E545A)
  KINOMEscan PIK3CA (E545A): 69
ERK2
  KINOMEscan ERK2: 96
ERK3
  KINOMEscan ERK3: 81
[2]
  KINOMEscan ABL1 (F317L)-nonphosphorylated: 0
